{
  "source": "paper PMC12196476",
  "about": "“New Nitrogen-, Oxygen-, and Sulfur-Containing Heterocyclic Compounds as Anti-Colon Cancer Agents: Synthesis, Multitargeted Evaluations, Molecular Docking Simulations and ADMET Predictions” (Pharmaceuticals, 2025)",
  "key": {"[1]": {"tested_on": "Bax, Bcl-2 and Casp-3 genes expression in HCT-116 cells", "assay": "qRT-PCR of Bax, Bcl-2 and Casp-3 gene expression, HCT-116", "assay_type": "cell-based, human", "conditions": "30 µg/mL, 48 h", "experimental": "To investigate molecular events downstream of ROS generation, we evaluated mRNA expression levels of key regulators of mitochondrial apoptosis—Bax and Bcl-2—using qRT-PCR. […] As a result, the Bax/Bcl-2 ratios were calculated to be 12.63 in LoVo cells and 8.71 in HCT-116 cells, reflecting a pronounced pro-apoptotic shift. This alteration in the Bax/Bcl-2 ratio strongly supports the activation of the mitochondrial apoptotic pathway.\nTo confirm activation of the execution phase of apoptosis, Casp-3 mRNA levels were evaluated by qRT-PCR.\nThe expression levels of these genes were determined using a quantitative real-time PCR technique. […]\nS3.2.9. Quantification of the Expression Levels of Bax, Bcl-2 and Caspase-3 Genes\nHuman colon cancer cell lines (HCT-116 and LoVo) were cultured for 24 h in a 25 mL flask at\na density of 1 * 10^6 cells/flask as described in section S3.2.4. Cells were treated with 30 µg/mL\nof compound 3d in 2 mL of fresh medium containing 1% FBS, or with 0.25 % DMSO as a\nnegative control, for 48 h. Afterwards, cells were washed with ice-cold phosphate-buffered\nsaline (PBS) and adherent cells were detached using trypsin solution.\nTable S7 lists primers amplifying 100-200 bp of Bax, Bcl-2 and Caspase-3 genes. These primers\nwere designed using primer blast software (https://www.ncbi.nlm.nih.gov/tools/primer-\nTable S7. Primer sequences for Bax, Bcl-2, Caspase-3, and GAPDH (control)\nGene Primer sequence (5’ to 3’)\nBcl-2 F 5’-[…] -3’,\nCaspase 3 F 5’- […]-3’,\nGAPDH F 5’- […]-3’\n• Reverse-Transcription PCR (RT-PCR)\nThe total RNA was extracted from untreated and treated cells using the RNeasy Mini Kit\n(Qiagen, DE). A Nanodrop 8000 spectrophotometer (Thermo Fisher Scientific, USA) was\nused to check the RNA purity and quality. The Hyperscript Kit (GeneAll, KR) and random\nhexamers (GeneAll, KR) were used as described in the manufacturer’s protocol to reverse-\ntranscript 1µg of RNA from each sample into cDNA.\n• Quantitative real-time PCR\nThe mRNA expression of Bax, Bcl-2, and Caspase-3 were measured using QuantStudio\n7Flex Detection System (Applied Biosystems, USA). The iScript One-Step RT-PCR Kit with\nSYBR Green (Cat no: 170-8892; Bio-Rad, CA, USA) was used to carry out the reactions for\nthe synthesis of cDNA. Each cDNA sample (5 µl) was added in a 20 µL PCR mixture"}, "[2]": {"assay": "DPPH radical scavenging assay", "conditions": "three independent experiments; read-out: Mean IC50 (mM) for initial DPPH radicals ± SD"}, "[3]": {"tested_on": "LoVo cells", "assay": "Intracellular ROS level (human ROS ELISA kit), LoVo", "assay_type": "cell-based", "conditions": "30 µg/mL, 48 h", "experimental": "To determine whether compound 3d induces oxidative stress, intracellular ROS levels were quantified after treatment (30 µg/mL, 48 h) using a human ROS ELISA kit.\nA Human ROS ELISA Kit was used to measure the intracellular accumulation of ROS in the 3d-treated LoVo and HCT-116 cells. […]\nmedium served used as negative and positive controls, respectively. Percentages of viable cells […]\nwells (final concentration of 100 μg/mL), compared to the negative control, and expressed as mean value (%) ± SD from two replicates. Graphing dose-response curves representing the compound […]\n(HUVECs) at final concentration of 100 μg/mL . HUVECs were grown in Dulbecco’s Modified Eagle’s Medium supplemented with 10% FBS, 2 mM glutamine (Sigma Aldrich), 100 units/mL penicillin and […] streptomycin (Life Technologies; Paisley, UK).\nS3.2.5. Cell cycle assay.\nHCT-116 and LoVo cultures upon treatment with compound 3d. HCT-116 and LoVo carcinoma […]\nμg/mL for 48 h. […] Then, cells […]\nwere fixed by mixing […] of 90% cold ethanol and stained with propidium iodide (PI) for 1 h at 37 °C. RNase A (10 mg/mL) was added in order to […] the ability of PI to bind only to DNA […]\nS3.2.6. Annexin-V-FITC assay. […]\ntreatment with compound 3d. […]\nof stained cancerous cells were determined. […]\ncarcinoma cells treated with compound 3d was assessed using the TMRE Mitochondrial Membrane"}, "[4]": {"conditions": "relative to untreated controls, normalized to GAPDH"}},
  "note": "“And” between values parts separate entries of the source, which are not always exact repeats. Equal values may be shown once.",
  "data": [
    {"smiles": "COc1cc(/C=N/c2ncnc3sc4c(c23)CCCC4)cc(OC)c1OC", "note": "[Compound 3d, (E)-N-(5,6,7,8-Tetrahydrobenzo[4,5]thieno[2,3-d]pyrimidin-4-yl)-1-(3,4,5-trimethoxyphenyl)methanimine]", "values": [
      {"measurement": "Bax/Bcl-2 ratio, HCT-116 cells", "setting": "[1]", "value": 8.71},
      {"measurement": "Bax mRNA expression, fold of control (HCT-116)", "setting": "[1]; [4]", "value": "3.57 ± 0.18", "unit": "fold"},
      {"measurement": "Bcl-2 mRNA expression, fold of control (HCT-116)", "setting": "[1]; [4]", "value": "0.41 ± 0.04", "unit": "fold"},
      {"measurement": "Casp-3 mRNA expression, fold of control (HCT-116)", "setting": "[1]; [4]", "value": "4.50 ± 0.40", "unit": "fold"},
      {"measurement": "IC50", "setting": "[2]", "value": "0.164 ± 0.008", "unit": "mM"},
      {"measurement": "ROS, Fold of control, LoVo", "setting": "[3]", "value": 2.6},
      {"measurement": "[ROS] pg/mL ± SD, LoVo", "setting": "[3]; control 168.6 ± 6.5, two independent experiments", "value": "434.5 ± 20.3 pg/mL and 434.5 pg/mL"}
    ]}
  ]
}
